# Data reported in patent EP0283369B1, “Use of Metformin in the preparation of medicaments” (LIPHA, LYONNAISE INDUSTRIELLE PHARMACEUTIQUE, priority 1987, dated 1988).
# Legend:
# artérioles terminales = assay: Skin window in the awake hamster: spontaneous microvascular vasomotion; assay type: in vivo; conditions: 2 mg/100 g par voie intraveineuse; hamster éveillé; controls: une par minute
# Source text: La fenêtre est éclairée par transmission, on observe le lit capillaire au microscope trioculaire. L'image est transformée en vidéosignal par une caméra. L'enregistrement du diamètre des microvaisseaux est réalisé en continu.
# Le produit à étudier est administré par voie intra-veineuse.
# [1] = tested on: cellules musculaires lisses précapillaires; assay: Hamster cheek pouch microcirculation under pentobarbital anaesthesia; assay type: in vivo; conditions: 1-2 mg/100 g par voie intraveineuse; animal anesthésié au pentobarbital (contractions abolished)
# [2] = tested on: modèle d'ischémie périphérique chez le rat; assay: Peripheral ischaemia model: microspheres injected into the femoral artery; assay type: in vivo; conditions: voie intra péritonéale 20 mg/kg
# Source text: Dans un modèle d'ischémie périphérique chez le rat, l'injection de microsphères dans l'artère fémorale, provoque l'apparition d'un oedème de la patte ainsi qu'une baisse des capacités motrices de l'animal.
# [3] = tested on: cellules endothéliales humaines; assay: Proliferation of human endothelial cells cultured in hypoxia
# Source text: (§1) • la néovascularisation est le résultat d'une prolifération anormale de cellules endothéliales en particulier dans un environnement hypoxique. • * Cette situation peut être reproduite in vitro en étudiant une telle prolifération sur une culture de cellules endothéliales humaines placées en hypoxie. […] Tout d'abord dans le modèle classique de néovascularisation de la cornée du lapin (M.A. Gimbrone Jr, R.S. Cotran, S.B. Leafman et A.J. Folkman, J. Natl Cancer Inst. 52).
# [4] = tested on: néovascularisation de la cornée du lapin; assay: Rabbit cornea neovascularisation model; assay type: in vivo; conditions: administration in situ
# Source text: as §1
# [5] = tested on: formation de néovaisseaux; assay: Neovascularisation after irreversible venous occlusion by argon laser photocoagulation in the miniature pig; assay type: in vivo, porc miniature; conditions: voie orale, dose journalière de 100 mg, pendant 4 semaines; 6 porcs miniatures
# Source text: Pournaras, […] Mbl. Augenheilk. 186 (1985) 471-476). Les expériences ont été partiquées chez le porc miniature. Une occlusion veineuse irréversible a été obtenue par photocoagulation au moyen du laser à Argon. L'angiographie fluorescéinique permet de visualiser 4 semaines après l'occlusion, dans les zones où les vaisseaux de suppléance sont insuffisants en nombre pour assurer la fonction de drainage, […]éovascularisation.
# [6] = tested on: endothélium en culture sur sa matrice extracellulaire; assay: Penetration of cancer cells through cultured endothelium on its extracellular matrix; assay type: cell-based; conditions: 10⁻⁴ - 10⁻⁵ M; in vitro
# métastases pulmonaires = assay: Pulmonary metastasis model in the mouse; assay type: in vivo; conditions: 25 et 12,5 mg par voie orale; souris
smiles,measurement,setting,value
"CN(C)C(=N)NC(=N)N [Metformine, N,N-diméthylimidodicarbonimidicdiamide]",fréquence de contractions et dilatations des artérioles terminales,artérioles terminales,10 par minute
same,contractions et relaxations rythmiques des cellules musculaires lisses précapillaires,[1],réapparition des contractions et relaxations rythmiques des cellules musculaires lisses précapillaires
same,motricité (capacités motrices de l'animal),[2],récupération totale de la motricité
same,réduction de l'oedème de la patte,[2],60%
same,prolifération de cellules endothéliales humaines en hypoxie,"[3]; concentrations de l'ordre de 10⁻⁷ à 10⁻¹² M, hypoxie",inhibe fortement cette prolifération
same,cytotoxicité sur ces cultures cellulaires,[3]; cultures de cellules endothéliales humaines,ne présente pas de cytotoxicité
same,apparition des néovaisseaux,[4],inhibe l'apparition des néovaisseaux
same,apparition d'une néovascularisation,[5],suppression complète de l'apparition d'une néovascularisation
same,pénétration de cellules cancéreuses à travers l'endothélium,[6],inhibe la pénétration de cellules cancéreuses à travers l'endothélium
same,baisse du nombre de métastases,métastases pulmonaires,50%
